{"source": "ChEMBL document CHEMBL5149966", "about": "“Bisphosphonates, Old Friends of Bones and New Trends in Clinics” (J Med Chem, 2021)", "key": {"Entamoeba histolytica [1]": {"tested_on": "Entamoeba histolytica", "assay": "Antiparasitic activity against Entamoeba histolytica trophozoites assessed as parasite growth inhibition incubated for 90 hrs followed by [3H]hypoxanthine addition and measured after 6 hrs by scintillation counter analysis", "type": "functional, organism-based"}, "Plasmodium falciparum": {"tested_on": "Plasmodium falciparum", "assay": "Antiparasitic activity against Plasmodium falciparum 3D7 infected in human erythrocyte assessed as intraerythrocytic growth inhibition incubated for 24 hrs followed by [3H]hypoxanthine addition by microbeta scintillation counter analysis", "type": "functional, organism-based", "conditions": "3D7, Erythrocyte"}, "Plasmodium berghei": {"tested_on": "Plasmodium berghei", "assay": "Antiparasitic activity against Plasmodium berghei ANKA infected in BALB/c mouse assessed as reduction in parasitemia at 25 mg/kg, ip for 4 days", "type": "functional", "design": "scale not given: the % may be the effect or the level left", "conditions": "time 4 day"}, "Rattus norvegicus": {"organism": "Rattus norvegicus", "assay": "Anti-osteoclast activity rat assessed as inhibition of bone resorption relative to control", "type": "functional"}, "[2]": {"assay": "Drug distribution in NMRI mouse liver at 4.2 mg/kg administered as C14-lableled compound and assessed as radioactivity and measured upto 2 hrs", "type": "ADME, organism-based", "conditions": "in vivo"}, "[3]": {"assay": "Drug distribution in NMRI mouse spleen at 4.2 mg/kg administered as C14-lableled compound and assessed as radioactivity and measured upto 2 hrs", "type": "ADME, organism-based", "conditions": "in vivo"}, "Entamoeba histolytica [4]": {"tested_on": "Entamoeba histolytica", "assay": "Antiparasitic activity against Entamoeba histolytica trophozoites infected in hamster liver to induce hepatic abscess assessed as reduction in liver abscess formation at 10 mg/kg, ip for 5 days", "type": "functional", "design": "scale not given: the % may be the effect or the level left", "conditions": "time 5 day"}, "Toxoplasma gondii": {"tested_on": "Toxoplasma gondii", "assay": "Antiparasitic activity against Toxoplasma gondii tachyzoites infected in human foreskin fibroblast incubated for 48 hrs followed by [5,6-3H]uracil addition and measured after 4 hrs by scintillation counter analysis", "type": "functional, organism-based", "conditions": "type III"}, "[5]": {"assay": "Drug uptake in Beagle dog small intestine at 0.15 mg/kg, iv administered as C14-lableled compound and assessed as radioactivity after 96 hrs by autoradiography", "type": "ADME, organism-based, Canis lupus familiaris", "conditions": "in vivo"}, "[6]": {"assay": "Drug uptake in Beagle dog lung at 0.15 mg/kg, iv administered as C14-lableled compound and assessed as radioactivity after 96 hrs by autoradiography", "type": "ADME, organism-based, Canis lupus familiaris", "conditions": "in vivo"}, "[7]": {"assay": "Drug uptake in Beagle dog spleen at 0.15 mg/kg, iv administered as C14-lableled compound and assessed as radioactivity after 96 hrs by autoradiography", "type": "ADME, organism-based, Canis lupus familiaris", "conditions": "in vivo"}, "[8]": {"assay": "Drug uptake in Beagle dog skin at 0.15 mg/kg, iv administered as C14-lableled compound and assessed as radioactivity after 96 hrs by autoradiography", "type": "ADME, organism-based, Canis lupus familiaris, Skin of body", "conditions": "in vivo"}, "[9]": {"assay": "Drug uptake in Beagle dog aorta at 0.15 mg/kg, iv administered as C14-lableled compound and assessed as radioactivity after 96 hrs by autoradiography", "type": "ADME, organism-based, Canis lupus familiaris", "conditions": "in vivo"}, "[10]": {"assay": "Drug uptake in Beagle dog liver at 0.15 mg/kg, iv administered as C14-lableled compound and assessed as radioactivity after 96 hrs by autoradiography", "type": "ADME, organism-based, Canis lupus familiaris", "conditions": "in vivo"}, "[11]": {"assay": "Drug uptake in Beagle dog pancreas at 0.15 mg/kg, iv administered as C14-lableled compound and assessed as radioactivity after 96 hrs by autoradiography", "type": "ADME, organism-based, Canis lupus familiaris", "conditions": "in vivo"}, "[12]": {"assay": "Drug uptake in Beagle dog sciatic nerve at 0.15 mg/kg, iv administered as C14-lableled compound and assessed as radioactivity after 96 hrs by autoradiography", "type": "ADME, organism-based, Canis lupus familiaris", "conditions": "in vivo"}, "[13]": {"tested_on": "Trypanosoma brucei rhodesiense", "assay": "Antiparasitic activity against Trypanosoma brucei rhodesiense STIB900 bloodstream trypomastigotes assessed as parasite growth inhibition incubated for 3 days by Alamar Blue fluorometric assay", "type": "functional, organism-based", "conditions": "STIB900, 72 h"}, "[14]": {"assay": "Drug uptake in Beagle dog knee cartilage at 0.15 mg/kg, iv administered as C14-lableled compound and assessed as radioactivity after 96 hrs by autoradiography", "type": "ADME, organism-based, Canis lupus familiaris, Cartilage tissue", "conditions": "in vivo"}, "Trypanosoma cruzi": {"tested_on": "Trypanosoma cruzi", "assay": "Antiparasitic activity against Trypanosoma cruzi amastigotes infected in vero cells assessed as parasite growth inhibition incubated for 48 hrs by light microscopy", "type": "functional, organism-based"}, "[15]": {"assay": "Drug uptake in Beagle dog heart at 0.15 mg/kg, iv administered as C14-lableled compound and assessed as radioactivity after 96 hrs by autoradiography", "type": "ADME, organism-based, Canis lupus familiaris", "conditions": "in vivo"}, "[16]": {"assay": "Drug uptake in Beagle dog thyroid gland at 0.15 mg/kg, iv administered as C14-lableled compound and assessed as radioactivity after 96 hrs by autoradiography", "type": "ADME, organism-based, Canis lupus familiaris", "conditions": "in vivo"}, "[17]": {"assay": "Drug uptake in Beagle dog adrenal tissue at 0.15 mg/kg, iv administered as C14-lableled compound and assessed as radioactivity after 96 hrs by autoradiography", "type": "ADME, organism-based, Canis lupus familiaris", "conditions": "in vivo"}, "[18]": {"biological_target": "T1, Ditrans,polycis-undecaprenyl-diphosphate synthase ((2E,6E)-farnesyl-diphosphate specific) (Escherichia coli (strain K12), UniProt P60472)", "T1 sequence (P60472 whole entry)": "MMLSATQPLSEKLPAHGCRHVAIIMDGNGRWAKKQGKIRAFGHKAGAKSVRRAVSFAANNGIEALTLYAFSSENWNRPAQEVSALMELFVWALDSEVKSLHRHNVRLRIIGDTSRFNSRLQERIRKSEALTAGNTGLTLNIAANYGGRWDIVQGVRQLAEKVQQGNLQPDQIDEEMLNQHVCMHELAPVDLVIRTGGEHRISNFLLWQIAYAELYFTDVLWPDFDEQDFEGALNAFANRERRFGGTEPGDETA", "assay": "Inhibition of Escherichia coli UPPS"}, "Leishmania donovani": {"tested_on": "Leishmania donovani", "assay": "Antiparasitic activity against amastigote stage Leishmania donovani MHOM/ET/67/L82 infected in CD-1 mouse peritoneal macrophage assessed as reduction in parasite burden incubated for 5 days by Giemsa staining based microscopy", "type": "functional, organism-based", "conditions": "MHOM/ET/67/L82, Peritoneal macrophage, 120 h"}}, "note": "pIC50: −log10 of the molar value."}
{"smiles": "CCCC(O)(P(=O)(O)O)P(=O)(O)O", "values": [{"measurement": "pIC50", "setting": "Entamoeba histolytica [1]", "value": 3.80}, {"measurement": "pIC50", "setting": "Plasmodium falciparum", "value": 5.26}, {"measurement": "Activity", "setting": "Plasmodium berghei", "value": 80, "unit": "%"}]}
{"smiles": "NCCC(O)(P(=O)(O)O)P(=O)(O)O", "note": "[PAMIDRONIC ACID]", "values": [{"measurement": "fold change (FC)", "setting": "Rattus norvegicus", "value": 100}, {"measurement": "Drug uptake", "setting": "[2]", "value": 20, "unit": "%"}, {"measurement": "Drug uptake", "setting": "[3]", "value": 20, "unit": "%"}]}
{"smiles": "CCCCCCCCCCC(O)(P(=O)(O)O)P(=O)(O)O", "values": [{"measurement": "Activity", "setting": "Entamoeba histolytica [4]", "value": 68, "unit": "%"}, {"measurement": "pIC50", "setting": "Toxoplasma gondii", "value": 6.55}]}
{"smiles": "O.O=P(O)(O)C(O)(Cn1ccnc1)P(=O)(O)O", "note": "[ZOLEDRONIC ACID]", "values": [{"measurement": "Drug uptake", "setting": "[5]", "value": "> 0.1", "unit": "nmol/g"}, {"measurement": "Drug uptake", "setting": "[6]", "value": "> 0.1", "unit": "nmol/g"}, {"measurement": "fold change (FC)", "setting": "Rattus norvegicus", "value": 6700}, {"measurement": "Drug uptake", "setting": "[7]", "value": "> 0.1", "unit": "nmol/g"}, {"measurement": "Drug uptake", "setting": "[8]", "value": "> 0.1", "unit": "nmol/g"}, {"measurement": "pIC50", "setting": "Plasmodium falciparum", "value": "< 3.70"}, {"measurement": "Drug uptake", "setting": "[9]", "value": "> 0.1", "unit": "nmol/g"}, {"measurement": "Drug uptake", "setting": "[10]", "value": "> 0.1", "unit": "nmol/g"}, {"measurement": "Drug uptake", "setting": "[11]", "value": "> 0.1", "unit": "nmol/g"}, {"measurement": "Drug uptake", "setting": "[12]", "value": "> 0.1", "unit": "nmol/g"}, {"measurement": "pIC50", "setting": "[13]", "value": 5.07}, {"measurement": "Drug uptake", "setting": "[14]", "value": 0.15, "unit": "nmol/g"}, {"measurement": "pIC50", "setting": "Toxoplasma gondii", "value": 5.17}, {"measurement": "pIC50", "setting": "Trypanosoma cruzi", "value": 4.46}, {"measurement": "Drug uptake", "setting": "[15]", "value": "> 0.1", "unit": "nmol/g"}, {"measurement": "Drug uptake", "setting": "[16]", "value": 0.3, "unit": "nmol/g"}, {"measurement": "Drug uptake", "setting": "[17]", "value": "> 0.1", "unit": "nmol/g"}]}
{"smiles": "O=P(O)(O)C(O)(Nc1ccc(-c2ccccc2)cc1)P(=O)(O)O", "values": [{"measurement": "pIC50", "setting": "Entamoeba histolytica [1]", "value": 5.06}, {"measurement": "pIC50", "setting": "Plasmodium falciparum", "value": 4.12}]}
{"smiles": "O=P(O)(O)C(O)(Cc1cccc(-c2cccc3oc4ccccc4c23)c1)P(=O)(O)O", "values": [{"measurement": "pIC50", "setting": "[18]", "value": 6.23}]}
{"smiles": "O=P(O)(O)C(O)(Cc1cccnc1)P(=O)(O)O", "note": "[RISEDRONIC ACID]", "values": [{"measurement": "fold change (FC)", "setting": "Rattus norvegicus", "value": 2000}]}
{"smiles": "CC(O)(P(=O)(O)O)P(=O)(O)O", "note": "[ETIDRONIC ACID]", "values": [{"measurement": "fold change (FC)", "setting": "Rattus norvegicus", "value": 1}]}
{"smiles": "CCCCCCCCCC(O)(P(=O)(O)O)P(=O)(O)O", "values": [{"measurement": "pIC50", "setting": "Plasmodium falciparum", "value": 6.08}, {"measurement": "pIC50", "setting": "Toxoplasma gondii", "value": 6.26}]}
{"smiles": "CCCCCC(O)(P(=O)(O)O)P(=O)(O)O", "values": [{"measurement": "pIC50", "setting": "Leishmania donovani", "value": "< 3.70"}, {"measurement": "pIC50", "setting": "Plasmodium falciparum", "value": 3.89}, {"measurement": "pIC50", "setting": "[13]", "value": 4.04}, {"measurement": "pIC50", "setting": "Toxoplasma gondii", "value": 5.04}]}
{"smiles": "O=P(O)(O)C(Cl)(Cl)P(=O)(O)O", "note": "[CLODRONIC ACID]", "values": [{"measurement": "fold change (FC)", "setting": "Rattus norvegicus", "value": 10}]}
{"smiles": "CCCCCCCCNC(O)(P(=O)(O)O)P(=O)(O)O", "values": [{"measurement": "pIC50", "setting": "[13]", "value": 5.77}]}
{"smiles": "NCCCC(O)(P(=O)(O)O)P(=O)(O)O", "note": "[ALENDRONIC ACID]", "values": [{"measurement": "fold change (FC)", "setting": "Rattus norvegicus", "value": 400}]}
{"smiles": "Cc1cccnc1NC(P(=O)(O)O)P(=O)(O)O", "values": [{"measurement": "pIC50", "setting": "Plasmodium falciparum", "value": "< 3.70"}]}
{"smiles": "O=P(O)(O)C(O)(Nc1cccc(-c2ccccc2)c1)P(=O)(O)O", "values": [{"measurement": "pIC50", "setting": "Entamoeba histolytica [1]", "value": 5.18}, {"measurement": "pIC50", "setting": "Plasmodium falciparum", "value": "< 3.70"}]}
{"smiles": "CCCCCN(C)CCC(O)(P(=O)(O)O)P(=O)(O)O", "note": "[IBANDRONIC ACID]", "values": [{"measurement": "fold change (FC)", "setting": "Rattus norvegicus", "value": 1000}]}
{"smiles": "CC(N)CC(O)(P(=O)(O)O)P(=O)(O)O", "note": "(stereo not drawn)", "values": [{"measurement": "pIC50", "setting": "Leishmania donovani", "value": "< 3.70"}, {"measurement": "pIC50", "setting": "Plasmodium falciparum", "value": "< 3.70"}]}
{"smiles": "O=P(O)(O)C(O)(CCc1cccnc1)P(=O)(O)O", "values": [{"measurement": "pIC50", "setting": "Leishmania donovani", "value": "< 3.70"}, {"measurement": "pIC50", "setting": "Plasmodium falciparum", "value": "< 3.70"}, {"measurement": "pIC50", "setting": "Toxoplasma gondii", "value": "< 3.70"}]}
